For three compounds, IC50 and inhibition results are on record in patent US9675606B2, “2-amino-3-(imidazol-2-yl)-pyridin-4-one derivatives and their use as VEGF receptor kinase inhibitors” (SANOFI, priority 2011, dated 2017).

The target of assay [1] is T1, VEGFR-3 (Homo sapiens, UniProt P35916).
T1 construct: expressed in transfected cells; host or cells: HEK293T cells, transient transfection with Fugene-6
Description: Effect of compounds on VEGFR-3 auto-phosphorylation in HEK cells (ELISA). It is filed as cell-based. The following applies: autophosphorylation of VEGFR-3-Flag overexpressed in HEK293T cells, 1 h incubation with compound. As to the method: Effect of Compounds on VEGFR-3 Auto-Phosphorylation in HEK Cells
The effects of compounds in blocking VEGFR-3 autophosphorylation were quatified by ELISA after Overexpression of VEGFR-3 in HEK cells. HEK293T cells were maintained in MEM supplemented with 10% foetal calf serum (FCS) and glutamine. The day before transfection, […] were seeded on 48 wells plates and transfection was done using Fugene-6 (Roche, Basel). Fugene-6 (18 μL) was preincubated for 5 min with 282 μl of optimem. Then 3 μg DNA corresponding VFGR-3-Flag was added and left at room temperature during 10 min before distributing 200 μl on HEK cells. After 24 h, the medium was removed and replaced by a new one without serum and incubated for 1 h with different concentrations (ranging from 3 to 1000 nM) of each compound. After additional 30 min incubation with Orthovanadate (0.4 mM), cells were washed with cold PBS supplemented by orthovanadate and then lysed with 300 μl of RIPA buffer. Lysates were then centrifuged during 10 min at 10000 g. Supernatants (75 μl) were distributed in duplicate on 96 well plate precoated with the anti-Flag and left during 1 hour at room temperature. After 3 washes with TBS buffer containing 0.5% tween 20, the anti-phospho-tyrosine conjugated to the HRP was added and incubated for 1 hour at room temperature. Wells were then washed 3 times with TBS buffer containing tween 20 (0.5%) and MgCl2 (2 mM). The reaction was stopped with 50 μl of H2SO4 (2 N) and the signal was read at Envision at 485 and 530.
The concentration-response curves were analyzed with internal software Biost@t-SPEED v2.0 using the 4-parameter logistic model according to Ratkovsky and Reedy (Ratkovsky D A., Reedy T J. Choosing near-linear parameters in the four parameters logistic model radioligands and related assays. Biometrics 1986 September 42(3):575-82.)
Background: ELISA stands for enzyme-linked immunosorbent assay.

In assay [2] the target is T1, VEGFR-3. Description: Ex vivo assay: VEGFR-3 autophosphorylation in HEK cells incubated with plasma of mice dosed p.o. Set-up: species or system male Balb/c mice. The following applies: HEK293, mouse; 6 h after single oral administration of 30 mg/kg to male Balb/c mice; transfected HEK cells incubated with plasma (10%); read-out: Ex vivo inhibition (%) At the time. As to the method: Protocol for administration of the products to the mice:
The products are prepared in a mortar with 0.5% Tween 80 and 0.6% methylcellulose qs final volume. The suspensions are administered by gavage (10 ml/kg) to male Balb/c mice 8 to 15 weeks old. Three hours or 6 hours after single oral administrations of 30 mg/kg, animals were anaesthetized with pentobarbital and blood samples (400 μL) were collected from cava vein and transferred into glass tubes containing lithium heparin. After centrifugation (1500-2000 g for 10 minutes), plasma samples were frozen at a temperature close to −20° C. until analysis.
In order to detect the ex vivo activity of the products in the plasmas, we have used the autophosphorylation assay in HEK cells described earlier. For this purpose, transfected cells were incubated with plasma (10%) instead of compounds. Results are expressed as percent of inhibition of VEGFR-3 autophosphorylation in comparison to untreated cells (maximum autophosphorylation) and to untransfected cells (background).
Results are expressed as a percentage of inhibition of VEGFR-3 auto-phosphorylation of in HEK cells, in presence of a plasma sample collected (at a time), after per os (p.o.) administration of compounds. In order to evaluate the increase of this activity for compounds of the invention, a comparison with compounds of the prior art (WO 2009/007535) and subjected to the same measurement is made in table 3.

T1 sequence (P35916 25-1363, species assumed): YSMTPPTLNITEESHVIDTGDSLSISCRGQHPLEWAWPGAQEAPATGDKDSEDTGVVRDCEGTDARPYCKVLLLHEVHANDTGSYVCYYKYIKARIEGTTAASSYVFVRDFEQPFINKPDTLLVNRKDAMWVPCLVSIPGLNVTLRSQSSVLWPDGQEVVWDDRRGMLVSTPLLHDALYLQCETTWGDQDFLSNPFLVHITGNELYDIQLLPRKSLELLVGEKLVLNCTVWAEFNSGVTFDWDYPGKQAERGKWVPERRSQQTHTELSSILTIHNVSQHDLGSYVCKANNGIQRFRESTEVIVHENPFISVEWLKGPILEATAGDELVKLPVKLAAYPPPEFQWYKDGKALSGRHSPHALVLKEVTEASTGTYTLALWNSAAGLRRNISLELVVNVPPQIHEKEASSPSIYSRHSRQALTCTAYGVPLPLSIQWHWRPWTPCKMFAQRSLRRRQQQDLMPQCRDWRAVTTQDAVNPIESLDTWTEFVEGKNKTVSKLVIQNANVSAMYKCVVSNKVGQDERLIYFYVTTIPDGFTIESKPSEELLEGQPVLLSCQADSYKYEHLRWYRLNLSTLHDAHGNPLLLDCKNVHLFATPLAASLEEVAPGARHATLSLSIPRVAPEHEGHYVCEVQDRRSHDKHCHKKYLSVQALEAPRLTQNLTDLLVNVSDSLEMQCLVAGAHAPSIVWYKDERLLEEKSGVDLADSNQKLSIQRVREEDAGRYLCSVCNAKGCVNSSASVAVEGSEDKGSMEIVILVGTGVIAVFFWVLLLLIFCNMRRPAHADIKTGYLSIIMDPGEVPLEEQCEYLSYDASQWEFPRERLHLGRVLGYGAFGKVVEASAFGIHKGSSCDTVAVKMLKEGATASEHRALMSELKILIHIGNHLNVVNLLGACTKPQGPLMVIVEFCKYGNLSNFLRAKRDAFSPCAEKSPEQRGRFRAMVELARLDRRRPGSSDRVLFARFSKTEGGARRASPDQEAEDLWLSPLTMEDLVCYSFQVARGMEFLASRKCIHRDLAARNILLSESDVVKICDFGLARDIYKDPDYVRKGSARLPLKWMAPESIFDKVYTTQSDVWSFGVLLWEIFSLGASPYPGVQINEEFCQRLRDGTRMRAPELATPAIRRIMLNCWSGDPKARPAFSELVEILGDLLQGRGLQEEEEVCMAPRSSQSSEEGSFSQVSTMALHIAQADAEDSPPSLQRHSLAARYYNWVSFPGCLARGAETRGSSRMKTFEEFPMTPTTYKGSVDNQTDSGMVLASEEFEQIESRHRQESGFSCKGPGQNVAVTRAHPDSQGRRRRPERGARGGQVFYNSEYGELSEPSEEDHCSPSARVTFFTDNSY

For orientation: IC50 means the point on the concentration scale where inhibition reaches its midpoint. The inhibition is the percentage by which the read-out fell short of the control. Consider `CCn1c(N)c(-c2ncc[nH]2)c(=O)c2ccc(C#C[C@@](C)(O)COC)nc21` [Compound 1, 2-Amino-1-ethyl-7-((3R)-3-hydroxy-4-methoxy-3-methyl-but-1-ynyl)-3-(1H-imidazol-2-yl)-1H-[1,8]naphthyridin-4-one], for which, at VEGFR-3 [1], the 50% inhibitory concentration (IC50) turned out to be 25 nM. Also, the inhibition at 30 mg/kg at VEGFR-3 [2] came to 83%.

For the compound `CCn1c(N)c(-c2nc(C)c[nH]2)c(=O)c2ccc(C#C[C@@](C)(O)COC)nc21` [Compound 5, 2-Amino-1-ethyl-7-[(3R)-3-hydroxy-4-methoxy-3-methylbut-1-yn-1-yl]-3-(4-methyl-1H-imidazol-2-yl)-1,8-naphthyridin-4(1H)-one], the half-inhibitory concentration (IC50) on VEGFR-3 [1] stood at 45 nM. On VEGFR-3 [2], the inhibition at 30 mg/kg came to 86%.

On to `CCn1c(N)c(-c2ncc[nH]2)c(=O)c2ccc(C#CC3(O)CCC3)nc21` [Compound 13, 2-Amino-1-ethyl-7-[(1-hydroxycyclobutyl)ethynyl]-3-(1H-imidazol-2-yl)-1,8-naphthyridin-4(1H)-one], for which, on VEGFR-3 [1], the IC50 worked out at 41 nM. At VEGFR-3 [2], the inhibition at 30 mg/kg came to 23%.
